Source: patent US20240067662A1, “KRAS INHIBITORS” (Bristol-Myers Squibb Company, priority 2022, published 2024)

Biological target: GMPPNP-loaded KRAS G12C (Homo sapiens, UniProt P01116, G12C)
Assay: KRAS G12C RAF Disruption Assay (HTRF)
Type: biochemical
Conditions: recombinant GMPPNP-loaded KRAS G12C (5 nM), 20 min with compound; GST-RAF1 RBD (9 nM); HTRF signal; read-out: KRASG12C RAF Disruption Assay (IC50)
Procedure: KRAS^G12C RAF Disruption Assay
This is a functional assay that measures activity of compounds against KRAS-G12C^(ON), i.e., the active form of KRAS G12C. Recombinant GMPPNP-loaded KRAS G12C (5 nM) was treated with compound at room temperature for 20 minutes in assay buffer (50 mM Tris pH 7.5, 100 mM NaCl, 1 mM MgCl2, 1 mM DTT, 100ug/ml BSA). Recombinant GST-RAF1 RBD (9 nM) was added, and the reaction mixture was incubated for 20 minutes. SA-Tb (0.25 nM) was added, and the reaction mixture was incubated for 3 hours. HTRF signal was measured (PerkinElmer Envision), the signal ratio (λem 520/λem 495) was calculated, and IC50 values were calculated from the dose-response curve.

Sequence of GMPPNP-loaded KRAS G12C (P01116 1-188 isoform P01116-2 G12C): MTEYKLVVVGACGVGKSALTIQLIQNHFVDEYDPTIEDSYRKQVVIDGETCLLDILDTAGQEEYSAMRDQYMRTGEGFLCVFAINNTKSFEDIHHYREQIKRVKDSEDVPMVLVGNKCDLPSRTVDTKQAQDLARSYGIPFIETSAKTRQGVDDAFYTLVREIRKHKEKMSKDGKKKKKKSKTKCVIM

SMILES | IC50
CN1CCC[C@H]1COc1nc(N2CCN(C(=O)/C(F)=C/c3ccccn3)[C@@H](CC#N)C2)c2cnc(-c3cccc4ccccc34)c(F)c2n1 [Compound 19B, 2-((S)-4-(8-fluoro-2-(((S)-1-methylpyrrolidin-2-yl)methoxy)-7-(naphthalen-1-yl)pyrido[4,3-d]pyrimidin-4-yl)-1-((Z)-2-fluoro-3-(pyridin-2-yl)acryloyl)piperazin-2-yl)acetonitrile] | 270 nM
C#Cc1cccc2cccc(-c3ncc4c(N5C[C@H]6CN(C(=O)/C(F)=C/c7ccccn7)C[C@H]6C5)nc(OC[C@@]56CCCN5C[C@H](F)C6)nc4c3F)c12 [Compound 100, (Z)-1-((3aR, 6aS)-5-(7-(8-ethynylnaphthalen-1-yl)-8-fluoro-2-(((2R, 7aS)-2-fluorotetrahydro-1H-pyrrolizin-7a(5H)-yl)methoxy)pyrido[4,3-d]pyrimidin-4-yl)hexahydropyrrolo[3,4-c]pyrrol-2(1H)-yl)-2-fluoro-3-(pyridin-2-yl)prop-2-en-1-one] | 5300 nM
CN1CCC[C@H]1COc1nc(N2CCN(C(=O)/C(F)=C/c3nccs3)CC2)c2cnc(-c3cccc4cccc(Cl)c34)c(F)c2n1 [Compound 22, (S,Z)-1-(4-(7-(8-chloronaphthalen-1-yl)-8-fluoro-2-((1-methylpyrrolidin-2-yl)methoxy)pyrido[4,3-d]pyrimidin-4-yl)piperazin-1-yl)-2-fluoro-3-(thiazol-2-yl)prop-2-en-1-one] | 1900 nM
C#Cc1cccc2cccc(-c3ncc4c(N(C)[C@H]5CN(C(=O)/C(F)=C/c6ccccn6)C[C@H]5F)nc(OC[C@@]56CCCN5C[C@H](F)C6)nc4c3F)c12 [Compound 128, (Z)-1-((3S,4R)-3-((7-(8-ethynylnaphthalen-1-yl)-8-fluoro-2-(((2R, 7aS)-2-fluorotetrahydro-1H-pyrrolizin-7a(5H)-yl)methoxy)pyrido[4,3-d]pyrimidin-4-yl)(methyl)amino)-4-fluoropyrrolidin-1-yl)-2-fluoro-3-(pyridin-2-yl)prop-2-en-1-one] | 30 nM
C#Cc1cccc2cccc(-c3ncc4c(N5CCN(C(=O)/C(F)=C/c6ncccn6)CC5)nc(OC[C@@]56CCCN5C[C@H](F)C6)nc4c3F)c12 [Compound 123, (Z)-1-(4-(7-(8-ethynylnaphthalen-1-yl)-8-fluoro-2-(((2R, 7aS)-2-fluorotetrahydro-1H-pyrrolizin-7a(5H)-yl)methoxy)pyrido[4,3-d]pyrimidin-4-yl)piperazin-1-yl)-2-fluoro-3-(pyrimidin-2-yl)prop-2-en-1-one] | 187 nM
N#CC[C@H]1CN(c2nc(OC[C@@]34CCCN3C[C@H](F)C4)nc3c(F)c(-c4ccccc4C4CCC4)ncc23)CCN1C(=O)/C(F)=C/c1nccs1 [Compound 82, 2-((2S)-4-(7-(2-cyclobutylphenyl)-8-fluoro-2-(((2R, 7aS)-2-fluorotetrahydro-1H-pyrrolizin-7a(5H)-yl)methoxy)pyrido[4,3-d]pyrimidin-4-yl)-1-((Z)-2-fluoro-3-(thiazol-2-yl)acryloyl)piperazin-2-yl)acetonitrile] | 62 nM
C#Cc1cccc2cccc(-c3ncc4c(N(C)C5CCN(C(=O)/C(F)=C/c6ccccn6)CC5)nc(OC[C@@]56CCCN5C[C@H](F)C6)nc4c3F)c12 [Compound 131, (Z)-1-(4-((7-(8-ethynylnaphthalen-1-yl)-8-fluoro-2-(((2R, 7aS)-2-fluorotetrahydro-1H-pyrrolizin-7a(5H)-yl)methoxy)pyrido[4,3-d]pyrimidin-4-yl)(methyl)amino)piperidin-1-yl)-2-fluoro-3-(pyridin-2-yl)prop-2-en-1-one] | 4200 nM
C#Cc1c(F)ccc2cc(O)cc(-c3ncc4c(N5C[C@H]6CC[C@@H](C5)N6C(=O)/C(F)=C/c5cccnn5)nc(OC[C@@]56CCCN5C[C@H](F)C6)nc4c3F)c12 [Compound 12, (Z)-1-((1R, 5S)-3-(7-(8-ethynyl-7-fluoro-3-hydroxynaphthalen-1-yl)-8-fluoro-2-(((2R, 7aS)-2-fluorotetrahydro-1H-pyrrolizin-7a(5H)-yl)methoxy)pyrido[4,3-d]pyrimidin-4-yl)-3,8-diazabicyclo[3.2.1]octan-8-yl)-2-fluoro-3-(pyridazin-3-yl)prop-2-en-1-one] | 11 nM
C#Cc1c(F)c(F)cc2cccc(-c3ncc4c(N5CCN(C(=O)/C(F)=C/c6ccccn6)CC5)nc(OC[C@@]56CCCN5C[C@H](F)C6)nc4c3F)c12 [Compound 99, (Z)-1-(4-(7-(8-ethynyl-6,7-difluoronaphthalen-1-yl)-8-fluoro-2-(((2R, 7aS)-2-fluorotetrahydro-IH-pyrrolizin-7a(5H)-yl)methoxy)pyrido[4,3-d]pyrimidin-4-yl)piperazin-1-yl)-2-fluoro-3-(pyridin-2-yl)prop-2-en-1-one] | 70 nM
N#Cc1c(N)sc2c(F)ccc(-c3ncc4c(N5CCN(C(=O)/C(F)=C/c6ccccn6)CC5)nc(OC[C@@]56CCCN5C[C@H](F)C6)nc4c3F)c12 [Compound 121, 2-amino-7-fluoro-4-(8-fluoro-4-(4-((Z)-2-fluoro-3-(pyridin-2-yl)acryloyl)piperazin-1-yl)-2-(((7aS)-2-fluorotetrahydro-1H-pyrrolizin-7a(5H)-yl)methoxy)pyrido[4,3-d]pyrimidin-7-yl)benzo[b]thiophene-3-carbonitrile] | 8 nM

Further lines, results first:

IC50 | SMILES
1100 nM | N#CC[C@H]1CN(c2nc(OC[C@@]34CCCN3C[C@H](F)C4)nc3c(F)c(-c4cc(F)ccc4C(F)F)ncc23)CCN1C(=O)/C(F)=C/c1nccs1 [Example 43, 2-((S)-4-(7-(2-(difluoromethyl)-5-fluorophenyl)-8-fluoro-2-(((2R, 7aS)-2-fluorotetrahydro-1H-pyrrolizin-7a(5H)-yl)methoxy)pyrido[4,3-d]pyrimidin-4-yl)-1-((Z)-2-fluoro-3-(thiazol-2-yl)acryloyl)piperazin-2-yl)acetonitrile]
150 nM | CN1CCC[C@H]1COc1nc(N2CCN(C(=O)/C(F)=C/c3ccccn3)[C@@H](CC#N)C2)c2cnc(-c3cccc4ccc(F)cc34)c(F)c2n1 [Example 36, 2-((S)-1-((Z)-2-fluoro-3-(pyridin-2-yl)acryloyl)-4-(8-fluoro-7-(7-fluoronaphthalen-1-yl)-2-(((S)-1-methylpyrrolidin-2-yl)methoxy)pyrido[4,3-d]pyrimidin-4-yl)piperazin-2-yl)acetonitrile]
430 nM | Cn1ncc2cccc(-c3ncc4c(N5CCN(C(=O)/C(F)=C/c6nccs6)[C@@H](CC#N)C5)nc(OC[C@@]56CCCN5C[C@H](F)C6)nc4c3F)c21 [Example 52, 2-((S)-4-(8-fluoro-2-(((2R, 7aS)-2-fluorotetrahydro-1H-pyrrolizin-7a(5H)-yl)methoxy)-7-(1-methyl-1H-indazol-7-yl)pyrido[4,3-d]pyrimidin-4-yl)-1-((Z)-2-fluoro-3-(thiazol-2-yl)acryloyl)piperazin-2-yl)acetonitrile]
180 nM | CN1CCC[C@H]1COc1nc(N2CCN(C(=O)/C(F)=C/c3nccs3)[C@@H](CC#N)C2)c2cnc(-c3cc(O)ccc3F)c(F)c2n1 [Example 23, 2-((S)-1-((Z)-2-fluoro-3-(thiazol-2-yl)acryloyl)-4-(8-fluoro-7-(2-fluoro-5-hydroxyphenyl)-2-(((S)-1-methylpyrrolidin-2-yl)methoxy)pyrido[4,3-d]pyrimidin-4-yl)piperazin-2-yl)acetonitrile]
